In test [1] the target is T1, Mps-1 kinase (Homo sapiens, UniProt P33981).
T1 sequence (P33981 1-857): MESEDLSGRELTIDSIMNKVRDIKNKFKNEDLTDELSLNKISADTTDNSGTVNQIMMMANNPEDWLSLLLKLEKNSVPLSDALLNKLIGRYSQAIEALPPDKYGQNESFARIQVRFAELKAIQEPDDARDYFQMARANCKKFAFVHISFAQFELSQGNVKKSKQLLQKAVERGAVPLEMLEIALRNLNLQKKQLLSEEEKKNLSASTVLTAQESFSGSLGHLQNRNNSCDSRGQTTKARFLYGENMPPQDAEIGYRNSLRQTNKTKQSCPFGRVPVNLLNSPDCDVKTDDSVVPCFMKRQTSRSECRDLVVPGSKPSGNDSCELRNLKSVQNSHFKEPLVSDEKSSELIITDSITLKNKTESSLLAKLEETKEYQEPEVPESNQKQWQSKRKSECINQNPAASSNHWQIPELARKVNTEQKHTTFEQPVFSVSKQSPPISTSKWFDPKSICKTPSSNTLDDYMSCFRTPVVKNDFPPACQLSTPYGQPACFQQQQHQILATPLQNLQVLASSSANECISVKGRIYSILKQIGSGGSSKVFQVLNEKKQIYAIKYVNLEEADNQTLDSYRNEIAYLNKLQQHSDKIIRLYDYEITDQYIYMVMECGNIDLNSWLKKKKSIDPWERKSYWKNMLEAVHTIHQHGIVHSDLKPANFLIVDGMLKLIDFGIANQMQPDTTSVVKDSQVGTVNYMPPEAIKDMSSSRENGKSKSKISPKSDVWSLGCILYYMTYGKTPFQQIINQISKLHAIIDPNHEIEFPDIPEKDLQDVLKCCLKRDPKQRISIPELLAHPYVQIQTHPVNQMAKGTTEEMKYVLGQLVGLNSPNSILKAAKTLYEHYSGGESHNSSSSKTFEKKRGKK
Briefly: Mps-1 kinase assay with 10 μM ATP (TR-FRET). On the technique in general: TR-FRET usually uses a lanthanide donor and a delayed reading to cut background.

Test [2] addresses T1, Mps-1 kinase. Briefly: Mps-1 kinase assay with 2 mM ATP (TR-FRET).

SMILES strings stand for the structures.

Regarding `COc1cc(CO)ccc1Nc1nc2ccc(-c3ccc(NC(=O)Cc4ccc(F)cc4)cc3)cn2n1` [Example 12.84, 2-(4-fluorophenyl)-N-[4-(2-{[4-(hydroxymethyl)-2-methoxyphenyl]amino}-[1,2,4]triazolo[1,5-α]pyridin-6-yl)phenyl]acetamide], the IC50 on Mps-1 kinase [1] and against Mps-1 kinase [2] was not above 1 nM in each case.

On to `CCN(Cc1ccc(Nc2nc3ccc(-c4ccc(NC(=O)Cc5ccc(F)cc5)cc4)cn3n2)c(OC)c1)C(C)(C)CO` [Example 12.16, N-(4-{2-[(4-{[ethyl(1-hydroxy-2-methylpropan-2-yl)amino]methyl}-2-methoxyphenyl)amino]-[1,2,4]triazolo[1,5-a]pyridin-6-yl}phenyl)-2-(4-fluorophenyl)acetamide], for which the IC50 against Mps-1 kinase [1] and against Mps-1 kinase [2] was not above 1 nM each time.

For `Cc1cc([S@@+](C)[O-])ccc1Nc1nc2ccc(-c3ccc(C(=O)NCc4ccc(Cl)cc4)cc3)cn2n1` (stereo in doubt) [Example 12.75, N-(4-chlorobenzyl)-4-(2-{[2-methyl-4-(methylsulfinyl)-phenyl]amino}[1,2,4]triazolo [1,5-a]pyridin-6-yl)-benzamide], the IC50 is not above 1 nM on Mps-1 kinase [1] and 5.1 nM on Mps-1 kinase [2].

Turning to `CS(=O)(=O)CCNC(=O)c1ccc(Nc2nc3ccc(-c4ccc(NC(=O)Cc5ccc(F)cc5)cc4)cn3n2)c(OCC(F)(F)F)c1` [Example 12.21, 4-{[6-(4-{[(4-fluorophenyl)-acetyl]amino}phenyl)[1,2,4]triazolo[1,5-a]pyridin-2-yl]amino}-N-[2-(methyl-sulfonyl)ethyl]-3-(2,2,2-trifluoroethoxy)benzamide], the half-inhibitory concentration (IC50) against Mps-1 kinase [1] and at Mps-1 kinase [2] was not above 1 nM in each case.

As for `COc1ccc(Nc2nc3ccc(-c4ccc(NC(=O)Cc5ccc(F)cc5)cc4)cn3n2)c(C)c1` [Example 12.35, 2-(4-fluorophenyl)-N-(4-{2-[(4-methoxy-2-methyl-phenyl)amino][1,2,4]-triazolo[1,5-a]pyridin-6-yl}-phenyl)acetamide], the concentration for half-maximal inhibition (IC50) at Mps-1 kinase [1] is not above 1 nM; on Mps-1 kinase [2], 2.1 nM.

For `CN(C)CCNC(=O)c1ccc(Nc2nc3ccc(-c4ccc(C(=O)NCc5ccc(F)cc5)cc4)cn3n2)c(OCC(F)(F)F)c1` [Example 12.58, N-[2-(dimethylamino)ethyl]-4-[(6-{4-[(4-fluorobenzyl)-carbamoyl]phenyl}[1,2,4]triazolo [1,5-a]pyridin-2-yl)-amino]-3-(2,2,2-trifluoro-ethoxy)benzamide], the IC50 on Mps-1 kinase [1] and at Mps-1 kinase [2] was not above 1 nM each time.

Consider `COc1cc(C(=O)N(C)C)ccc1Nc1nc2ccc(-c3ccc(C(=O)NCc4ccc(F)cc4)cc3)cn2n1` [Example 12.46, 4-[(6-{4-[(4-fluorobenzyl)-carbamoyl]phenyl}[1,2,4]triazolo [1,5-a]pyridin-2-yl)-amino]-3-methoxy-N,N-dimethylbenzamide], for which the values for the IC50 at Mps-1 kinase [1] and at Mps-1 kinase [2] were not above 1 nM and 3.5 nM, respectively.

`COc1cc(C(=O)NCCN(C)C)ccc1Nc1nc2ccc(-c3ccc(C(=O)NCc4ccc(F)cc4)cc3)cn2n1` [Example 12.48, N-[2-(dimethylamino)ethyl]-4-[(6-{4-[(4-fluorobenzyl)-carbamoyl]phenyl}[1,2,4]triazolo [1,5-a]pyridin-2-yl)amino]-3-methoxy-benzamide]: the results for the IC50 on Mps-1 kinase [1] and against Mps-1 kinase [2] were not above 1 nM and 1.3 nM, respectively.

Turning to `COc1cc(S(C)(=O)=O)ccc1Nc1nc2ccc(-c3ccc(NC(=O)Cc4ccc(F)cc4F)cc3)cn2n1` [Example 10.01], the IC50 on Mps-1 kinase [1] was not above 1 nM; against Mps-1 kinase [2], 17 nM.

In the case of `COc1cc(C(=O)NCCS(C)(=O)=O)ccc1Nc1nc2ccc(-c3ccc(NC(=O)Cc4ccc(F)cc4)cc3)cn2n1` [Example 12.03], the IC50 against Mps-1 kinase [1] and on Mps-1 kinase [2] was not above 1 nM each time.

Take `COc1cc([S@@+](C)[O-])ccc1Nc1nc2ccc(-c3ccc(C(=O)NCc4ccc(F)cc4)cc3)cn2n1` (stereo in doubt) [Example 12.51, N-(4-fluorobenzyl)-4-(2-{[2-methoxy-4-(methylsulfinyl)-phenyl]amino}[1,2,4]-triazolo[1,5-a]pyridin-6-yl)-benzamide]: the figures for the half-inhibitory concentration (IC50) at Mps-1 kinase [1] and at Mps-1 kinase [2] were not above 1 nM and 2.6 nM, respectively.

With `Cc1cc(NS(C)(=O)=O)ccc1Nc1nc2ccc(-c3ccc(C(=O)NCc4ccc(F)cc4)cc3)cn2n1` [Example 12.70, N-(4-fluorobenzyl)-4-[2-({2-methyl-4-[(methylsulfonyl)-amino]phenyl}amino)[1,2,4]triazolo [1,5-a]pyridin-6-yl]-benzamide], the results for the IC50 against Mps-1 kinase [1] and on Mps-1 kinase [2] were not above 1 nM and 9.5 nM, respectively.

On to `CS(=O)(=O)c1ccc(Nc2nc3ccc(-c4ccc(NC(=O)Cc5ccc(F)cc5)cc4)cn3n2)c(OC(F)F)c1` [Example 01.35, N-[4-(2-{[2-(difluoromethoxy)-4-(methylsulfonyl)phenyl]amino}[1,2,4]-triazolo[1,5-α]pyridin-6-yl)phenyl]-2-(4-fluorophenyl)acetamide], for which the 50% inhibitory concentration (IC50) against Mps-1 kinase [1] was not above 1 nM; at Mps-1 kinase [2], 1.2 nM.

For `CS(=O)(=O)c1ccc(Nc2nc3ccc(-c4ccc(C(=O)NCc5ccc(F)cc5)cc4)cn3n2)c(OC2CC2)c1` [Example 02.29, 4-(2-{[2-(cyclopropyloxy)-4-(methylsulfonyl)phenyl]amino}[1,2,4]triazolo-[1,5-α]pyridin-6-yl)-N-(4-fluorobenzyl)benzamide], the IC50 was not above 1 nM on Mps-1 kinase [1] and 7.5 nM against Mps-1 kinase [2].

Consider `COc1cc(S(C)(=O)=O)ccc1Nc1nc2ccc(-c3ccc(NC(=O)Cc4ccccc4)cc3)cn2n1` [Example 12.42, N-[4-(2-{[2-methoxy-4-(methylsulfonyl)phenyl]-amino}[1,2,4]triazolo[1,5-a]pyridin-6-yl)phenyl]-2-phenylacetamide], for which the half-maximal inhibitory concentration (IC50) at Mps-1 kinase [1] was not above 1 nM; on Mps-1 kinase [2], 12 nM.

On to `CCOc1cc(C(=O)NCCF)ccc1Nc1nc2ccc(-c3ccc(C(=O)NCc4ccc(F)cc4)cc3)cn2n1` [Example 12.57, 3-ethoxy-4-[(6-{4-[(4-fluoro-benzyl)carbamoyl]phenyl}-[1,2,4]triazolo[1,5-a]pyridin 2-yl)amino]-N-(2-fluoroethyl)benzamide], for which the IC50 on Mps-1 kinase [1] and against Mps-1 kinase [2] was not above 1 nM each time.

`CN(C)CCNC(=O)c1ccc(Nc2nc3ccc(-c4ccc(NC(=O)Cc5ccc(F)cc5)cc4)cn3n2)c(OCC(F)(F)F)c1` [Example 12.23, N-[2-(dimethylamino)ethyl]-4-{[6-(4-{[(4-fluorophenyl)-acetyl]amino}phenyl)[1,2,4]triazolo[1,5-a]pyridin-2-yl]amino}-3-(2,2,2-trifluoro-ethoxy)benzamide]: the 50% inhibitory concentration (IC50) against Mps-1 kinase [1] and against Mps-1 kinase [2] was not above 1 nM throughout.

Broadly, the IC50 is the midpoint of a concentration-inhibition curve. Low readings indicate higher potency, high ones lower potency.

The values are drawn from patent US20140120087A1, “TRIAZOLOPYRIDINES” (BAYER INTELLECTUAL PROPERTY GMBH, priority 2011, published 2014).
